Results published in patent publication US7875647B2, “Heteroaryl-pyrazole derivatives as cannabinoid CB1 receptor antagonists” (Green Cross Corporation, priority 2006, dated 2011).

Target: T1, Cannabinoid-1 receptor (CB1R) (Rattus norvegicus, UniProt P20272)
T1 construct: The tissue obtained from the brain of SD rats was homogenized; from tissue; host or cells: brain of SD rats (membrane pellet of the homogenate)
Experiment: Cannabinoid-1 receptor (CB1R) binding affinity assay ([3H]CP-55940, rat CB-1 receptor binding protocol)
Settings: IC50(nM), brain tissue of SD rats, [3H]CP-55940, 30° C. 60 min

T1 sequence (P20272 whole entry): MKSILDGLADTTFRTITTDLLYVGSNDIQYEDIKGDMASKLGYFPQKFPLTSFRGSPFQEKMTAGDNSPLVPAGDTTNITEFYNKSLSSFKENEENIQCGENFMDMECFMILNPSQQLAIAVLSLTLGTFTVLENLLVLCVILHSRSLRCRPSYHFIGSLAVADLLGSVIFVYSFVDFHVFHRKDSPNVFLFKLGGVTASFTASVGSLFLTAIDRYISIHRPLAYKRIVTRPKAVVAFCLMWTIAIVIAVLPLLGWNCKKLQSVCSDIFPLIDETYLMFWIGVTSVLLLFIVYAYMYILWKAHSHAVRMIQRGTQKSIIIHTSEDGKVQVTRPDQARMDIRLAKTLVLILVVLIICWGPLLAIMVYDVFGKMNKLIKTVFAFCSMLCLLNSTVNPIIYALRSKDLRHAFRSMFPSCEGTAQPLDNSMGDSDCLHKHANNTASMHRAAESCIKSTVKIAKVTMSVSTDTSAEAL

Structure (SMILES)	IC50
CCc1c(-c2nnc(C3(c4cccc(Cl)c4)CC3)o2)nn(-c2ccc(Cl)cc2Cl)c1-c1ccc(Br)cc1 [Example 273, 2-(5-(4-bromophenyl)-1-(2,4-dichlorophenyl)-4-ethyl-1H-pyrazol-3-yl)-5-(1-(3-chlorophenyl)cyclopropyl)-1,3,4-oxadiazole]	2.32 nM
CCc1c(-c2nnc(C3(CC)CC3)o2)nn(-c2ccc(Cl)cc2Cl)c1-c1ccc(Br)cc1 [Example 279, 2-(5-(4-bromophenyl)-1-(2,4-dichlorophenyl)-4-ethyl-1H-pyrazol-3-yl)-5-(1-ethylcyclopropyl)-1,3,4-oxadiazole]	12.8 nM

Same assay, conditions: brain tissue of SD rats, [3H]CP-55940, 30° C. 60 min; read-out: IC50

Structure (SMILES)	IC50
CCc1c(-c2nnc(C3(C#N)CC3)o2)nn(-c2ccc(Cl)cc2Cl)c1-c1ccc(Br)cc1 [Example 266, 1-(5-(5-(4-bromophenyl)-1-(2,4-dichlorophenyl)-4-ethyl-1H-pyrazol-3-yl)-1,3,4-oxadiazol-2-yl)cyclopropanecarbonitrile]	15.5 nM
Cc1c(-c2nnc(C3(C#N)CC3)o2)nn(-c2ccc(Cl)cc2Cl)c1-c1ccc(Cl)cc1 [Example 267, 1-(5-(5-(4-chlorophenyl)-1-(2,4-dichlorophenyl)-4-methyl-1H-pyrazol-3-yl)-1,3,4-oxadiazol-2-yl)cyclopropanecarbonitrile]	95.3 nM
CCc1c(-c2nnc(C3(C#N)CC3)o2)nn(-c2ccc(Cl)cc2Cl)c1-c1ccc(Cl)cc1 [Example 268, 1-(5-(5-(4-chlorophenyl)-1-(2,4-dichlorophenyl)-4-ethyl-1H-pyrazol-3-yl)-1,3,4-oxadiazol-2-yl)cyclopropanecarbonitrile]	83.8 nM
Cc1c(-c2nnc(C3(c4ccccn4)CC3)o2)nn(-c2ccc(Cl)cc2Cl)c1-c1ccc(Cl)cc1 [Example 269, 2-(5-(4-chlorophenyl)-1-(2,4-dichlorophenyl)-4-methyl-1H-pyrazol-3-yl)-5-(1-(pyridin-2-yl)cyclopropyl)-1,3,4-oxadiazole]	19.9 nM
Cc1c(-c2nnc(C3(Cc4ccccc4)CC3)o2)nn(-c2ccc(Cl)cc2Cl)c1-c1ccc(Cl)cc1 [Example 270, 2-(1-benzylcyclopropyl)-5-(5-(4-chlorophenyl)-1-(2,4-dichlorophenyl)-4-methyl-1H-pyrazol-3-yl)-1,3,4-oxadiazole]	15 nM
CCc1c(-c2nnc(C3(c4ccc(F)cc4)CC3)o2)nn(-c2ccc(Cl)cc2Cl)c1-c1ccc(Br)cc1 [Example 272, 2-(5-(4-bromophenyl)-1-(2,4-dichlorophenyl)-4-ethyl-1H-pyrazol-3-yl)-5-(1-(4-fluorophenyl)cyclopropyl)-1,3,4-oxadiazole]	5.8 nM
Cc1c(-c2nnc(C3(c4ccc(F)cc4)CC3)o2)nn(-c2ccc(Cl)cc2Cl)c1-c1ccc(Cl)cc1 [Example 274, 2-(5-(4-chlorophenyl)-1-(2,4-dichlorophenyl)-4-methyl-1H-pyrazol-3-yl)-5-(1-(4-fluorophenyl)cyclopropyl)-1,3,4-oxadiazole]	12.3 nM
Cc1c(-c2nnc(C3(C)CC3)o2)nn(-c2ccc(Cl)cc2Cl)c1-c1ccc(Cl)cc1 [Example 275, 2-(5-(4-chlorophenyl)-1-(2,4-dichlorophenyl)-4-methyl-1H-pyrazol-3-yl)-5-(1-methylcyclopropyl)-1,3,4-oxadiazole]	14.7 nM
CCc1c(-c2nnc(C3(C)CC3)o2)nn(-c2ccc(Cl)cc2Cl)c1-c1ccc(Br)cc1 [Example 276, 2-(5-(4-bromophenyl)-1-(2,4-dichlorophenyl)-4-ethyl-1H-pyrazol-3-yl)-5-(1-methylcyclopropyl)-1,3,4-oxadiazole]	13 nM
CCC1(c2nnc(-c3nn(-c4ccc(Cl)cc4Cl)c(-c4ccc(Cl)cc4)c3C)o2)CC1 [Example 277, 2-(5-(4-chlorophenyl)-1-(2,4-dichlorophenyl)-4-methyl-1H-pyrazol-3-yl)-5-(1-ethylcyclopropyl)-1,3,4-oxadiazole]	12.6 nM
CCc1c(-c2nnc(C3(CC)CC3)o2)nn(-c2ccc(Cl)cc2Cl)c1-c1ccc(Cl)cc1 [Example 278, 2-(5-(4-chlorophenyl)-1-(2,4-dichlorophenyl)-4-ethyl-1H-pyrazol-3-yl)-5-(1-ethylcyclopropyl)-1,3,4-oxadiazole]	17.1 nM
Cc1c(-c2nnc(C3(Cc4ccc(Cl)cc4)CC3)o2)nn(-c2ccc(Cl)cc2Cl)c1-c1ccc(Cl)cc1 [Example 280, 2-(1-(4-chlorobenzyl)cyclopropyl)-5-(5-(4-chlorophenyl)-1-(2,4-dichlorophenyl)-4-methyl-1H-pyrazol-3-yl)-1,3,4-oxadiazole]	11.7 nM
CCc1c(-c2nnc(C3(Cc4ccc(Cl)cc4)CC3)o2)nn(-c2ccc(Cl)cc2Cl)c1-c1ccc(Br)cc1 [Example 281, 2-(1-(4-chlorobenzyl)cyclopropyl)-5-(5-(4-bromophenyl)-1-(2,4-dichlorophenyl)-4-ethyl-1H-pyrazol-3-yl)-1,3,4-oxadiazole]	6.21 nM
CCc1c(-c2nnc(C3(c4ccccc4F)CC3)o2)nn(-c2ccc(Cl)cc2Cl)c1-c1ccc(Cl)cc1 [Example 282, 2-(5-(4-chlorophenyl)-1-(2,4-dichlorophenyl)-4-ethyl-1H-pyrazol-3-yl)-5-(1-(2-fluorophenyl)cyclopropyl)-1,3,4-oxadiazole]	4.08 nM
CCc1c(-c2nnc(C3(C)CC3)o2)nn(-c2ccc(Cl)cc2Cl)c1-c1ccc(Cl)cc1 [Example 283, 2-(5-(4-chlorophenyl)-1-(2,4-dichlorophenyl)-4-ethyl-1H-pyrazol-3-yl)-5-(1-methylcyclopropyl)-1,3,4-oxadiazole]	11 nM
CC(=O)C1(c2nnc(-c3nn(-c4ccc(Cl)cc4Cl)c(-c4ccc(Cl)cc4)c3C)o2)CC1 [Example 286, 1-(1-(5-(5-(4-chlorophenyl)-1-(2,4-dichlorophenyl)-4-methyl-1H-pyrazol-3-yl)-1,3,4-oxadiazol-2-yl)cyclopropyl)ethanone]	9.36 nM
Cc1c(-c2nnc(C3(C(C)(C)O)CC3)o2)nn(-c2ccc(Cl)cc2Cl)c1-c1ccc(Cl)cc1 [Example 287, 2-(1-(5-(5-(4-chlorophenyl)-1-(2,4-dichlorophenyl)-4-methyl-1H-pyrazol-3-yl)-1,3,4-oxadiazol-2-yl)cyclopropyl)propan-2-ol]	34.9 nM
Cc1c(-c2nnc(C3(C(C)O)CC3)o2)nn(-c2ccc(Cl)cc2Cl)c1-c1ccc(Cl)cc1 (stereo not shown) [Example 288, 1-(1-(5-(5-(4-chlorophenyl)-1-(2,4-dichlorophenyl)-4-methyl-1H-pyrazol-3-yl)-1,3,4-oxadiazol-2-yl)cyclopropyl)ethanol]	60.2 nM
CCN(C)Cc1c(-c2nnc(C(C)(C)C)o2)nn(-c2ccc(Cl)cc2Cl)c1-c1ccc(Cl)cc1 [Example 290, N-((3-(5-tert-butyl-1,3,4-oxadiazol-2-yl)-5-(4-chlorophenyl)-1-(2,4-dichlorophenyl)-1H-pyrazol-4-yl)methyl)-N-methylethanamine]	227 nM
CC(C)(C)c1nnc(-c2nn(-c3ccc(Cl)cc3Cl)c(-c3ccc(Cl)cc3)c2CN2CCCCC2)o1 [Example 291, 2-tert-butyl-5-(5-(4-chlorophenyl)-1-(2,4-dichlorophenyl)-4-(piperidin-1-ylmethyl)-1H-pyrazol-3-yl)-1,3,4-oxadiazole]	45.7 nM
CC(C)(C)c1nnc(-c2nn(-c3ccc(Cl)cc3Cl)c(-c3ccc(Cl)cc3)c2CN2CCOCC2)o1 [Example 293, 4-((3-(5-tert-butyl-1,3,4-oxadiazol-2-yl)-5-(4-chlorophenyl)-1-(2,4-dichlorophenyl)-1H-pyrazol-4-yl)methyl)morpholine]	135 nM
CC(C)NCc1c(-c2nnc(C(C)(C)C)o2)nn(-c2ccc(Cl)cc2Cl)c1-c1ccc(Cl)cc1 [Example 295, N-((3-(5-tert-butyl-1,3,4-oxadiazol-2-yl)-5-(4-chlorophenyl)-1-(2,4-dichlorophenyl)-1H-pyrazol-4-yl)methyl)propan-2-amine]	41.5 nM
CC(C)(C)c1nnc(-c2nn(-c3ccc(Cl)cc3Cl)c(-c3ccc(Cl)cc3)c2Cn2cncn2)o1 [Example 296, 2-(4-((1H-1,2,4-triazol-1-yl)methyl)-5-(4-chlorophenyl)-1-(2,4-dichlorophenyl)-1H-pyrazol-3-yl)-5-tert-butyl-1,3,4-oxadiazole]	2.36 nM
CC(C)(C)c1nnc(-c2nn(-c3ccc(Cl)cc3Cl)c(-c3ccc(Cl)cc3)c2Cn2ccnc2)o1 [Example 297, 2-(4-((1H-imidazol-1-yl)methyl)-5-(4-chlorophenyl)-1-(2,4-dichlorophenyl)-1H-pyrazol-3-yl)-5-tert-butyl-1,3,4-oxadiazole]	18.7 nM
CC(C)(C)c1nnc(-c2nn(-c3ccc(Cl)cc3Cl)c(-c3ccc(Cl)cc3)c2Cn2cccn2)o1 [Example 298, 2-(4-((1H-pyrazol-1-yl)methyl)-5-(4-chlorophenyl)-1-(2,4-dichlorophenyl)-1H-pyrazol-3-yl)-5-tert-butyl-1,3,4-oxadiazole]	20.5 nM
CC(C)(C)c1nnc(-c2nn(-c3ccc(Cl)cc3Cl)c(-c3ccc(Cl)cc3)c2Cn2cccc2)o1 [Example 299, 2-(4-((1H-pyrrol-1-yl)methyl)-5-(4-chlorophenyl)-1-(2,4-dichlorophenyl)-1H-pyrazol-3-yl)-5-tert-butyl-1,3,4-oxadiazole]	38.4 nM
CC(C)(C)c1nnc(-c2nn(-c3ccc(Cl)cc3Cl)c(-c3ccc(Cl)cc3)c2Cn2cnnn2)o1 [Example 300, 2-(4-((1H-tetrazol-1-yl)methyl)-5-(4-chlorophenyl)-1-(2,4-dichlorophenyl)-1H-pyrazol-3-yl)-5-tert-butyl-1,3,4-oxadiazole]	3.37 nM
CC(C)(C)c1nnc(-c2nn(-c3ccc(Cl)cc3Cl)c(-c3ccc(Cl)cc3)c2Cn2cnnn2)o1 [Example 301, 2-(4-((1H-tetrazol-1-yl)methyl)-5-(4-chlorophenyl)-1-(2,4-dichlorophenyl)-1H-pyrazol-3-yl)-5-tert-butyl-1,3,4-oxadiazole]	7.64 nM
CC(C)(C)c1nnc(-c2nn(-c3ccc(Cl)cc3Cl)c(-c3ccc(Br)cc3)c2Cn2ncnn2)o1 [Example 302, 2-(4-((2H-tetrazol-2-yl)methyl)-5-(4-bromophenyl)-1-(2,4-dichlorophenyl)-1H-pyrazol-3-yl)-5-tert-butyl-1,3,4-oxadiazole]	6.44 nM
